Reference: the supplement of paper PMC6331611
Values after ≈ are worked out from the molar mass of the structure shown. Where a name gives a salt, the structure may show the parent alone.

Tests used:
[1] = tested on: Salmonella enterica serovar Typhimurium SL1344
[2] = tested on: Salmonella enterica serovar Typhimurium SL1344; assay: intracellular MIC (10-fold luminescence reduction); higher = less potent; settings: RAW264.7 macrophages
[3] = tested on: RAW264.7; assay: cytotoxicity (LDH release relative to maximum lysis); higher = more toxic; settings: 50 µM; 2 h

| Compound | MIC ([1]; LPM pH 5.8) | MIC ([1]; MHB) | MIC ([1]; MOPS glucose minimal medium) | intracellular MIC [2] | cytotoxicity [3] |
| --- | --- | --- | --- | --- | --- |
| COc1c(N2CCNC(C)C2)c(F)cc2c(=O)c(C(=O)O)cn(C3CC3)c12 (centres undefined) [GATIFLOXACIN] | ≤ 0.78 µM | ≤ 0.78 µM | ≤ 0.78 µM | ≤ 0.78 µM | 21.7% |
| C=C1c2c(Cl)ccc(O)c2C(=O)C2=C(O)[C@]3(O)C(=O)C(C(N)=O)=C(O)[C@@H](N(C)C)[C@@H]3[C@@H](O)[C@H]12.O=C(O)c1cc(S(=O)(=O)O)ccc1O [MECLOCYCLINE SULFOSALICYLATE] | ≤ 0.78 µM | ≤ 0.78 µM | ≤ 0.78 µM | 3.13 µM | 16.3% |
| CCCCCCNC(=O)n1cc(F)c(=O)[nH]c1=O [CARMOFUR] | ≤ 0.78 µM | > 50 µM | ≤ 0.78 µM | 1.56 µM | 13.7% |
| COc1cc(CNC(=O)CCCC/C=C/C(C)C)ccc1O [CAPSAICIN] | > 50 µM | > 50 µM | > 50 µM | > 50 µM | 19.5% |
| O=C(O)c1cn(C2CC2)c2cc(N3CCNCC3)c(F)cc2c1=O [CIPROFLOXACIN] | > 50 µM |  | ≤ 0.78 µM | ≤ 0.78 µM | 21.5% |
| O=c1[nH]cc(F)c(=O)[nH]1 [FLUOROURACIL] | ≤ 0.78 µM | > 50 µM | ≤ 0.78 µM | ≤ 0.78 µM | 8.29% |
| CN1CCN(c2c(F)cc3c(=O)c(C(=O)O)cn4c3c2SCC4)CC1 [RUFLOXACIN HYDROCHLORIDE] | 6.25 µM | 1.56 µM | ≤ 0.78 µM | ≤ 0.78 µM | 13.3% |
| CS(=O)(=O)c1ccc([C@@H](O)[C@@H](CF)NC(=O)C(Cl)Cl)cc1 [FLORFENICOL] | ≤ 0.78 µM | 12.5 µM (≈ 4.48 µg/mL) | 6.25 µM (≈ 2.24 µg/mL) | 6.25 µM | 21.3% |
| CCCCCN(C)CCC(O)(P(=O)(O)O)P(=O)(O)O [IBANDRONATE SODIUM] | > 50 µM | > 50 µM | > 50 µM | 1.56 µM | 6.92% |
| Nc1ncn([C@@H]2O[C@H](CO)[C@@H](O)[C@H]2O)c(=O)n1 [AZACITIDINE] | ≤ 0.78 µM | 25 µM (≈ 6.11 µg/mL) | ≤ 0.78 µM | ≤ 0.78 µM | 16.4% |
| C[n+]1cc2c3c(ccc2c2ccc4cc5c(cc4c21)OCO5)OCO3 [SANGUINARINE SULFATE] | > 50 µM | > 50 µM | > 50 µM | 25 µM | 34.2% |
| CN1CCN(c2cc3c(cc2F)c(=O)c(C(=O)O)cn3-c2ccc(F)cc2)CC1 [DIFLOXACIN HYDROCHLORIDE] | ≤ 0.78 µM | ≤ 0.78 µM | ≤ 0.78 µM | 1.56 µM | 6.88% |
| CCCNC(C)(C)COC(=O)c1ccccc1 [MEPRYLCAINE HYDROCHLORIDE] | > 50 µM | > 50 µM | > 50 µM | 1.56 µM | 6.92% |
| CO/N=C(\C(=O)N[C@@H]1C(=O)N2C(C(=O)OCOC(=O)C(C)(C)C)=C(/C=C\c3scnc3C)CS[C@H]12)c1csc(N)n1 [CEFDITORIN PIVOXIL] | 50 µM (≈ 31 µg/mL) | 50 µM (≈ 31 µg/mL) | 25 µM (≈ 15.5 µg/mL) | > 50 µM | 21% |
| CO[C@H]1/C=C/O[C@@]2(C)Oc3c(C)c(O)c4c(O)c(c5c(nc6cc(C)ccn65)c4c3C2=O)NC(=O)/C(C)=C\C=C\[C@H](C)[C@H](O)[C@@H](C)[C@@H](O)[C@@H](C)[C@H](OC(C)=O)[C@@H]1C [RIFAXIMIN] | 6.25 µM (≈ 4.91 µg/mL) | 12.5 µM (≈ 9.82 µg/mL) | 25 µM (≈ 19.6 µg/mL) | 12.5 µM | 6.48% |
| O=C(O)c1cn(-c2ccc(F)cc2)c2cc(N3CCNCC3)c(F)cc2c1=O [SARAFLOXACIN HYDROCHLORIDE] | ≤ 0.78 µM | ≤ 0.78 µM | ≤ 0.78 µM | ≤ 0.78 µM | 21.5% |

| Compound | MIC ([1]; LPM pH 5.8) | MIC ([1]; MHB) | MIC ([1]; MOPS glucose minimal medium) | intracellular MIC [2] | cytotoxicity [3] |
| --- | --- | --- | --- | --- | --- |
| CC1CCc2cc(F)cc3c(=O)c(C(=O)O)cn1c23 (centres undefined) [FLUMEQUINE] | ≤ 0.78 µM | 6.25 µM (≈ 1.63 µg/mL) | 1.56 µM (≈ 0.408 µg/mL) | > 50 µM | 20.1% |
| CN[C@H]1CC[C@@H](c2ccc(Cl)c(Cl)c2)c2ccccc21 [SERTRALINE HYDROCHLORIDE] | > 50 µM | > 50 µM | > 50 µM | > 50 µM | 22.7% |
| C=C1c2cccc(O)c2C(=O)C2=C(O)[C@]3(O)C(=O)C(C(N)=O)=C(O)[C@@H](N(C)C)[C@@H]3[C@@H](O)[C@H]12 [METHACYCLINE HYDROCHLORIDE] | ≤ 0.78 µM | 6.25 µM | 3.13 µM | 3.13 µM | 13.8% |
| Nc1nc(/C(=C/CC(=O)O)C(=O)N[C@@H]2C(=O)N3C(C(=O)O)=CCS[C@H]23)cs1 [CEFTIBUTEN] | ≤ 0.78 µM | ≤ 0.78 µM | ≤ 0.78 µM | > 50 µM | 21% |
| CCCCC(CC)CN1CN(CC(CC)CCCC)CC(C)(N)C1 (centres undefined) [HEXETIDINE] | 25 µM (≈ 8.49 µg/mL) | > 50 µM | > 50 µM | > 50 µM | 49.5% |
| CNC(=O)Oc1ccc2c(c1)[C@]1(C)CCN(C)[C@@H]1N2C [PHYSOSTIGMINE SALICYLATE] | 12.5 µM (≈ 3.44 µg/mL) | > 50 µM | > 50 µM | ≤ 0.78 µM | 7.34% |
| N[C@@H](Cc1cc(I)c(Oc2ccc(O)c(I)c2)c(I)c1)C(=O)O [LIOTHYRONINE] | > 50 µM | > 50 µM | > 50 µM | > 50 µM | 6.23% |
| NCc1ccc(S(N)(=O)=O)cc1 [MAFENIDE HYDROCHLORIDE] | > 50 µM | > 50 µM | > 50 µM | 1.56 µM | 7.52% |
| Oc1cc(Cl)ccc1Oc1ccc(Cl)cc1Cl [TRICLOSAN] | ≤ 0.78 µM | ≤ 0.78 µM | ≤ 0.78 µM | 1.56 µM | 23.5% |
| [O-][n+]1ccccc1[S-].[O-][n+]1ccccc1[S-].[Zn+2] [PYRITHIONE ZINC] | ≤ 0.78 µM | 3.13 µM | 3.13 µM | 3.13 µM | 84.4% |
| CO[C@]12C[C@@H](COC(=O)c3cncc(Br)c3)CN(C)[C@@H]1Cc1cn(C)c3cccc2c13 [NICERGOLINE] | > 50 µM | > 50 µM | > 50 µM | 25 µM | 20.4% |
| CCOC(=O)Nc1nc2ccccc2[nH]1 [LOBENDAZOLE] | 50 µM (≈ 10.3 µg/mL) | > 50 µM | > 50 µM | > 50 µM | 21.1% |
| COc1c(N2C[C@@H]3CCCN[C@@H]3C2)c(F)cc2c(=O)c(C(=O)O)cn(C3CC3)c12 [MOXIFLOXACIN HYDROCHLORIDE] | > 50 µM | > 50 µM | > 50 µM | > 50 µM | 24.3% |
| CCCCCCCCNC(C)C(O)c1ccc(SC(C)C)cc1 (centres undefined) [SULOCTIDIL] | 50 µM (≈ 16.9 µg/mL) | > 50 µM | > 50 µM | 1.56 µM | 33.3% |
| CC[C@H]1OC(=O)[C@H](C)[C@@H](O[C@H]2C[C@@](C)(OC)[C@@H](O)[C@H](C)O2)[C@H](C)[C@@H](O[C@@H]2O[C@H](C)C[C@H](N(C)C)[C@H]2O)[C@](C)(O)C[C@@H](C)C(=O)[C@H](C)[C@@H](O)[C@]1(C)O [ERYTHROMYCIN] | > 50 µM | > 50 µM | > 50 µM | 1.56 µM | 6.32% |
| COc1ccc2cc1Oc1ccc(cc1)C[C@H]1c3c(cc4c(c3Oc3cc5c(cc3OC)CCN(C)[C@@H]5C2)OCO4)CCN1C [CEPHARANTHINE] | > 50 µM | > 50 µM | > 50 µM | > 50 µM | 13.1% |
